Test results taken from patent EP4733299A1, “SULFUR-CONTAINING FUSED RING COMPOUND, PHARMACEUTICAL COMPOSITION CONTAINING SAME, AND PREPARATION METHOD THEREFOR AND USE THEREOF” (Shenzhen Braegen Pharmaceutical Co., Ltd., priority 2023, dated 2024).

Assays:
AT8-positive NFTs = test: Ex vivo staining of human AD patient brain sections; type: binding; details: AD brains; Fig. 3
Procedure: (§1) The ex vivo screening was extended into human DLB, and AD patient samples. Neurodegenerative diseases of DLB belong to synucleino-pathies with well-defined Lewy bodies. Therefore, the positive compounds should show robust signals with LBs and LNs.
(§2) For immunohistochemical staining, deparaffinized and antigen-retrieved 20 µm-thick human brain sections were treated with 0.3% H2O2 at room temperature for 10 min. Subsequently, the sections were washed in PBS with 0.3% Triton X-100 3 times and then blocked with 1% BSA for 30 min, followed by overnight incubation with anti-Aβ/AT8/α-Syn pS129 antibody at 4 °C. The signal was developed using a Histostain-SP kit (Invitrogen, Catalog No.: 95-9943). After washing, the sections were covered with a glass cover using mounting solution.

Aβ plaques = test: as above; type: binding; details: AD brains; Fig. 3
Procedure: as §1, §2

a-Syn aggregates = target: T1, a-Syn aggregates (Homo sapiens, UniProt P37840, A53T); test: Binding specificity on brain slices of rotenone-treated SNCA transgenic mice; details: brain slices, rotenone-treated SNCA Tg mice; Fig. 2
T1 construct: tissue The Jackson Laboratory 017682; host or cells: brain sections of rotenone-treated transgenic mice
Procedure: To further explore whether the positive compounds selectively bind to Lewy bodies, brain slices from mice were used to test the binding specificity assays.
Staining with a-Synuclein protein coding gene (SNCA) transgenic mice (the Jackson Laboratory; stock numbers: 017682) were treated with rotenone (Oral gavage of rotenone under the following protocol: Mice were treated with 0.1 mL/25 g of vehicle containing 1% methylcellulose (Sigma, Catalog No.: M0512) and 1.25% chloroform (Sigma, Catalog No.: 2432) or a solution containing 0.625 mg/mL of rotenone (ULTRA Scientific, Catalog No.: PST-890) with 1% methylcellulose and 1.25% chloroform. We prepared rotenone solution by dissolving rotenone in chloroform and then diluting into 1% methylcellulose solution while mixing vigorously. Rotenone or vehicle control was orally administered with a 1.2 x 60 mm gavage (Unimed, Switzerland) once a day for 5 days/week, consecutively for 3 months.), which contains abundant LB-like inclusions. Furthermore, brain slices from NFT abundant Tau P301S mice and Aβ-enriched 5 x FAD mice were also used separately.
The brain slices were fixed and incubated for 12 h at 4 °C with primary antibodies followed by incubation with Alexa Fluor 568-, Alexa Fluor 488-, or Alexa Fluor 647-conjugated secondary antibodies (Invitrogen) for 3 h at room temperature. Then stained with ThS (Sigma, Catalog No.: T1892) or candidate compounds at room temperature, 4',6-diamidino-2-phenylindole (DAPI, 1 µg/ml) (Sigma-Aldrich) was used for the nuclear staining. The slides were imaged with Olympus FluoView FV1000 confocal laser scanning microscope using Olympus FluoView software to acquire data.

[1] = In vivo PK profiling, plasma and brain exposure; design: species or system male CD-1 (ICR) mice; details: 5 mg/kg via tail vein injection; for Kp at 1 min: at 1 minute, read-out: brain/plasma ratio; for half-life: plasma
Procedure: To test whether these compounds are brain permeable in vivo, in vivo PK profiling was conducted to determain brain exposure.
An in vivo PK study was performed in male CD-1 (ICR) mice. Weighed a known amount of test compound and dissolved in vehicle (5% NMP + 15% Solutol + 80% PBS) to make a formulation (1 mg/mL). Then administered 5 mg/kg compound via tail vein injection into mice. The experiment included five groups (sampling time points), each group consisting of three male CD-1 (ICR) mice (body weight range: 29.1-30.6 g). At designated time points (0, 1, 5, 15, and 30 minutes post-injection), serial venous blood samples (approximately 30 µL each) and brain tissue samples were harvested from each animal. Blood samples were collected into Vacutainer IM tubes containing EDTA-K2 anticoagulant, inverted several times, and immediately placed on wet ice pending plasma centrifugation. For brain tissue samples, PBS (100 mM, pH 7.4) at […] the weight of the tissue (1:4, w/v) was added for homogenization. The concentrations of the test compound in plasma and brain tissue homogenates were measured by the LC/MS/MS analysis, with the specific operations as follows: Aliquots of 10 µL plasma sample or 50 µL brain homogenate sample was transferred to a 96-well plate, mixed with 200 µL protein precipitation solvent (methanol/acetonitrile, 1:1 v/v, containing 5 ng/mL Terfenadine). After protein precipitation, the supernatant was collected and diluted 3-fold with methanol/water (1:1, v/v, containing 0.1% FA). 1 µL of plasma samples or 3 µL of brain tissue homogenate samples was taken for LC/MS/MS analysis.

[2] = target: T2, α-Syn-p129 or α-Syn aggregates (Homo sapiens, UniProt P37840, A53T); test: In vivo validation: tail vein injection, then staining of brain sections; design: species or system rotenone-treated α-Syn A53T mice; details: 2 mg/kg tail vein injection; 0.5 hours after administration
T2 construct: tissue The Jackson Laboratory 017682; host or cells: brain sections of rotenone-treated transgenic mice
Procedure: In vivo validation of the compounds was performed using 8-month-old wild-type mice (Jiangsu Aniphe Biolaboratory Inc), 12-month-old 5xFAD mice (The Jackson Laboratory; Catalog No.: 034840), 6-month-old Tau P301S mice (The Jackson Laboratory; Catalog No.: 008169), and rotenone-treated α-Syn A53T mice (The Jackson Laboratory; Catalog No.: 017682). All mice were stratified by sex and randomly divided into groups, and the compounds were administered via tail vein injection at a dose of 2 mg/kg. Tissues were harvested and mouse brain sections were prepared 0.5 hours after administration, followed by staining with anti-Aβ (Biolegend; Catalog No.: SIG-39300) or AT8 (Thermo Fisher; Catalog No.: MN1020) together with the compounds, respectively.

[3] = male, CD-1 (ICR), mouse, brain/plasma, intravenous
[4] = male, CD-1 (ICR), mouse, brain/plasma, intravenous, read-out: brain/plasma ratio, maximum
[5] = male, CD-1 (ICR), mouse, intravenous

Row | SMILES | staining of AT8-positive NFTs (AT8-positive NFTs) | staining of Aβ plaques (Aβ plaques) | capture of a-Syn aggregates (a-Syn aggregates) | plasma half-life extension compared to F0502B [1] [fold] | Kp at 1 min [1, 3] | Kp at 15 min [1, 4] | half-life [1, 5] [min] | co-localization with α-Syn-p129 or α-Syn aggregates [2] | Kp at 30 min ([1]; male, CD-1 (ICR), mouse, brain/plasma, intravenous, at 30 minutes, read-out: brain/plasma ratio, maximum)
1 | Cc1cc2nc(/C=C/c3ccc(O)c(N)c3)sc2cc1N(C)CCOCCF [Compound C, (E)-2-amino-4-(2-(6-((2-(2-fluoroethoxy)ethyl)(methyl)amino)-5-methylbenzo[d]thiazol-2-yl)vinyl)phenol] | did not stain | did not stain | sensitively captured a-Syn aggregates | 10 | 0.24 | 1.29 | 68.4 | co-localized | 
2 | COc1c(/C=C/c2nc3cc(C)c(N(C)CCOCCF)cc3s2)ccc(O)c1Br [Compound E, (E)-2-bromo-4-(2-(6-((2-(2-fluoroethoxy)ethyl)(methyl)amino)-5-methylbenzo[d]thiazol-2-yl)vinyl)-3-methoxyphenol] | did not stain | did not stain | sensitively captured a-Syn aggregates |  | 0.12 | 3.37 |  | co-localized | 
3 | CCN(CCOCCF)c1cc2sc(/C=C/c3ccc(O)c(Br)c3)nc2cc1C [Compound R, (E)-2-bromo-4-(2-(6-(ethyl(2-(2-fluoroethoxy)ethyl)amino)-5-methylbenzo[d]thiazol-2-yl)vinyl)phenol] | did not stain | did not stain | sensitively captured a-Syn aggregates | 4.7 | 0.05 |  | 32.4 | co-localized | 2.55
